Reference: US20160075753A1, “MODULATION OF REGULATORY T CELL FUNCTION VIA PROTEIN KINASE C-eta” (LA JOLLA INSTITUTE FOR ALLERGY AND IMMUNOLOGY, priority 2013, published 2016)

Test system: interaction between CTLA-4 and PKCη
Experiment: CTLA-4 immunoprecipitation and immunoblotting for PKCη in cotransfected JTAg cells
Format: cell-based, human
Settings: JTAg cells cotransfected with WT Ctla4 and Xpress-tagged WT PKCη; PP2 10 μM for 30 min before anti-CD3 mAbs + B7-Fc stimulation for 5 min; FIG. 12
Protocol: WT Ctla4 were cotransfected with Xpress-tagged WT PKCη into JTAg cells. Cells were treated with vehicle (DMSO), PP2 (10 μM) or PP3 (10 μM) for 30 min prior to stimulation with anti-CD3 mAbs+B7-Fc recombinant protein for 5 min Cell lysates were immunoprecipitated with CTLA-4 mAb and then immunoblotted with the indicated Abs.
Simian virus 40 large T antigen-transfected human leukemic Jurkat T cells (JTAg) and MCC-specific hybridoma T cells were described previously. JTAg cells in logarithmic growth phase were transfected with plasmid DNAs by electroporation and incubated for 48 hours. Transfected cells were stimulated with OKT3 mAb and recombinant B7-Fc in the presence of cross-linking Ab for 5 min. Cell lysis in 1% digitonin lysis buffer (50 mM Tris-HCl, 50 mM NaCl, 5 mM EDTA), immunoprecipitation and Western blotting were carried out as previously described.
To map the important motif within the cytoplasmic tail of CTLA-4 that is used in the interaction with PKCη, the membrane proximal positively charged motif (K188, 191KKR193), the proline-rich motif (P205, 206, 209), and tyrosine residues (Y201 or Y218) were mutated, and the corresponding mutants examined for their ability to associate with PKCη. […] This positively charged motif is highly conserved throughout evolution from fish to primates (FIG. 10).

## CC(C)(C)n1nc(-c2ccc(Cl)cc2)c2c(N)ncnc21 [PP2]
  interaction between CTLA-4 and PKCη (co-immunoprecipitation): not affected
